26 molecules from US20260345568A1, “INHIBITING MONOACYLGLYCEROL LIPASE (MAGL)” (PSY THERAPEUTICS, INC., priority 2023, published 2026) can be followed below.

Structures are written as SMILES. pIC50: −log10 of the molar value.

For the first assay, the target named is T1, human MAGL (Homo sapiens, UniProt Q99685).
T1 construct: recombinant MAGL enzyme (aa 2-303 RBC, internal preparation)
T1 sequence (Q99685 2-303): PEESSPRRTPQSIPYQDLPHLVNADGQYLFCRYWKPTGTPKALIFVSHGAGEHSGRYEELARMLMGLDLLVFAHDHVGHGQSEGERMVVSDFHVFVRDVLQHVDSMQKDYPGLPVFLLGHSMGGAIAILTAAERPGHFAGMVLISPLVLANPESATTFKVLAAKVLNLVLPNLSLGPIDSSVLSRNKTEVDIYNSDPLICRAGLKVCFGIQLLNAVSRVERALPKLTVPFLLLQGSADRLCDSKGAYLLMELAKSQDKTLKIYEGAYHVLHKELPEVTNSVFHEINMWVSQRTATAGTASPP
The experiment in a line: MAGL inhibition potency, 4-nitrophenyl acetate (4NPA) hydrolysis, absorbance 405 nm (Example A). It counts as biochemical. The following applies: Method 2: Cayman Chemical MAGL enzyme, 10 nM; 4NPA substrate; read-out: Potency. An excerpt:
The potency of certain compounds for inhibiting MAGL were obtained using the following assays.
The monoacylglycerol lipase inhibitor screening assay kit from Cayman Chemical was used to measure the MAGL potency for the compounds in Tables A-1, A-2, A-3.
Cayman's Monoacylglycerol Lipase Inhibitor Screening Assay provides a method for screening human MAGL inhibitors. MAGL hydrolyzes 4-nitrophenylacetate resulting in a yellow product, 4-nitrophenol, with an absorbance of 405-412 nm.
MAGL Inhibition was measured by the following assay. Monoacylglycerol Lipase (MAGL) inhibition was measured using recombinant MAGL enzyme (aa 2-303 RBC, internal preparation) and the substrate 4-Nitrophenyl acetate (4NPA) (Sigma-Aldrich, N8130). Hydrolysis of the substrate in the presence of the enzyme was measured by absorbance at 405 nm. 10 μL of assay buffer (10 mM Tris pH 7.5, 1 mM EDTA, 0.9% DMSO) was added to a black 384-well non-binding plate with clear bottom (Greiner, 781906) for each reaction. Compounds were dispensed using an acoustic liquid handler (Echo, Beckman) at 45 nL (0.1% DMSO). Test compounds and control for MAGL inhibitor JZL-184 (Caymen Chemical, 13158) were tested in 10-concentration IC50 mode with 3-fold serial dilution at a starting concentration of […]. DMSO control wells were included for reference. A 10.8 nM (1.8×) MAGL mix in assay buffer was prepared, with 25 μL added to each reaction well, for a final assay concentration of […]. No enzyme wells received 25 μL of buffer. Plate was incubated at room temperature for 30 minutes. 35 mM solution of 4NPA in methanol was prepared daily A 4.5×4NPA substrate solution was prepared in assay buffer and 10 μL was added to each reaction well, for a final assay concentration of 0.25 mM. Plate was spun for 1 minute at 1000 rpm before measuring absorbance using a CLARIOstar plate reader (BMG Labtech). A kinetic reading at 405 nm was done every minute for 30 minutes. Data was analyzed using the linear slope of the reaction progress curve and the average of the no-enzyme wells (background) was subtracted from the data. The background-subtracted slope data was converted to % activity using the average of wells with enzyme and DMSO vehicle. IC50s were calculated using GraphPad software (Sigmoidal dose response, variable slope equation).
Table 8 provides potency measurements of MAGL inhibition measured using the Potency Assay of Example A above, with the following modifications described in Table C.
The number after each letter for potency measurement value indicates the Method from Table C that was used to obtain that measurement value (e.g. “A(1)” indicates an IC50 measurement of <50 nM obtained from the Method 1 of Example A in Table C).
Consider `Cc1cc(C2CC3(C2)CN([C@H]2CCOc4ccccc42)C3)n(-c2ccccc2C)n1` [Compound C4, reference compound], for which the pIC50 was under 5.00.

Still in this assay, the particulars now being: Method 12: Reaction Biology MAGL enzyme, 15 nM; 4NPA substrate; read-out: MAGL Potency (Detection Method).
`O=C(c1cc(O)ccc1F)N1CC2(CC(n3ncc(C(F)(F)F)c3-c3cccnc3)C2)C1` [Compound 1, (2-fluoro-5-hydroxyphenyl){6-[5-(3-pyridyl)-4-(trifluoromethyl)-1-pyrazolyl]-2-aza-2-spiro[3.3]heptyl}methanone]: the pIC50 was 6.30 to 6.82.

`O=C(c1cc(O)ccc1F)N1CC2(CC(n3cc(C(F)(F)F)c(-c4cccnc4)n3)C2)C1` [Compound 2, (2-fluoro-5-hydroxyphenyl){6-[3-(3-pyridyl)-4-(trifluoromethyl)-1-pyrazolyl]-2-aza-2-spiro[3.3]heptyl}methanone]: the pIC50 is over 7.30.

`O=C(c1cc(O)ccc1F)N1CC2(CC(n3nc(C(F)(F)F)cc3-c3cccnc3)C2)C1` [Compound 3, (2-fluoro-5-hydroxyphenyl){6-[5-(3-pyridyl)-3-(trifluoromethyl)-1-pyrazolyl]-2-aza-2-spiro[3.3]heptyl}methanone]: the pIC50 was 6.82 to 7.30.

Turning to `O=C(c1cc(O)ccc1F)N1CC2(CC(n3nc(-c4cccnc4)cc3C(F)(F)F)C2)C1` [Compound 4, (2-fluoro-5-hydroxyphenyl){6-[3-(3-pyridyl)-5-(trifluoromethyl)-1-pyrazolyl]-2-aza-2-spiro[3.3]heptyl}methanone], the pIC50 is over 7.30.

In the case of `O=C(c1cc(O)ccc1F)N1CC2(CC(n3nc(-c4ccccn4)cc3C(F)(F)F)C2)C1` [Compound 6, (2-fluoro-5-hydroxyphenyl){6-[3-(2-pyridyl)-5-(trifluoromethyl)-1-pyrazolyl]-2-aza-2-spiro[3.3]heptyl}methanone], the pIC50 was 6.30 to 6.82.

In the case of `O=C(c1cc(O)ccc1F)N1CC2(CC(n3nc(C(F)(F)F)cc3-c3ccncc3)C2)C1` [Compound 7, (2-fluoro-5-hydroxyphenyl){6-[5-(4-pyridyl)-3-(trifluoromethyl)-1-pyrazolyl]-2-aza-2-spiro[3.3]heptyl}methanone], the pIC50 was 6.30 to 6.82.

For the molecule `O=C(c1cc(O)ccc1F)N1CC2(CC(n3nc(-c4ccncc4)cc3C(F)(F)F)C2)C1` [Compound 8, (2-fluoro-5-hydroxyphenyl){6-[3-(4-pyridyl)-5-(trifluoromethyl)-1-pyrazolyl]-2-aza-2-spiro[3.3]heptyl}methanone], the pIC50 is over 7.30.

On to `O=C(c1cc(O)ccc1F)N1CC2(CC(n3nc(C(F)(F)F)cc3-c3ccc(=O)[nH]c3)C2)C1` [Compound 9, 5-(1-(2-(2-fluoro-5-hydroxybenzoyl)-2-azaspiro [3.3]heptan-6-yl)-3-(trifluoromethyl)-1H-pyrazol-5-yl) pyridin-2(1H)-one], for which the pIC50 is 6.30 to 6.82.

`O=C(c1cc(O)ccc1F)N1CC2(CC(n3nc(C(F)(F)F)cc3-c3ccc[nH]c3=O)C2)C1` [Compound 11, 3-(1-(2-(2-fluoro-5-hydroxybenzoyl)-2-azaspiro [3.3]heptan-6-yl)-3-(trifluoromethyl)-1H-pyrazol-5-yl) pyridin-2(1H)-one]: the pIC50 is 6.30 to 6.82.

Take `O=C(c1cc(O)ccc1F)N1CC2(CC(n3nc(C(F)(F)F)cc3-c3cncc(F)c3)C2)C1` [Compound 13]: the pIC50 is 6.30 to 6.82.

For the molecule `O=C(c1cc(O)ccc1F)N1CC2(CC(n3nc(-c4cncc(F)c4)cc3C(F)(F)F)C2)C1` [Compound 14, (2-fluoro-5-hydroxyphenyl){6-[3-(5-fluoro-3-pyridyl)-5-(trifluoromethyl)-1-pyrazolyl]-2-aza-2-spiro[3.3]heptyl}methanone], the pIC50 was 6.82 to 7.30.

Turning to `COc1ncccc1-c1cc(C(F)(F)F)nn1C1CC2(C1)CN(C(=O)c1cc(O)ccc1F)C2` [Compound 16], the pIC50 is 6.82 to 7.30.

In the case of `COc1ccc(-c2cc(C(F)(F)F)nn2C2CC3(C2)CN(C(=O)c2cc(O)ccc2F)C3)cn1` [Compound 18, (2-fluoro-5-hydroxyphenyl) (6-(5-(6-methoxypyridin-3-yl)-3-(trifluoromethyl)-1H-pyrazol-1-yl)-2-azaspiro [3.3]heptan-2-yl) methanone], the pIC50 was 6.30 to 6.82.

For the molecule `COc1ncccc1-c1c(C(F)(F)F)cnn1C1CC2(C1)CN(C(=O)c1cc(O)ccc1F)C2` [Compound 19, (2-fluoro-5-hydroxyphenyl){6-[5-(2-methoxy-3-pyridyl)-4-(trifluoromethyl)-1-pyrazolyl]-2-aza-2-spiro[3.3]heptyl}methanone], the pIC50 is over 7.30.

As for `COc1ncccc1-c1nn(C2CC3(C2)CN(C(=O)c2cc(O)ccc2F)C3)cc1C(F)(F)F` [Compound 20], the pIC50 was 6.30 to 6.82.

In the case of `O=C(c1cc(O)ccc1F)N1CC2(CC(n3ncc(C(F)(F)F)c3-c3cccnc3F)C2)C1` [Compound 21], the pIC50 was 6.30 to 6.82.

With `O=C(c1cc(O)ccc1F)N1CC2(CC(n3cc(C(F)(F)F)c(-c4cccnc4F)n3)C2)C1` [Compound 22, (2-fluoro-5-hydroxyphenyl){6-[3-(2-fluoro-3-pyridyl)-4-(trifluoromethyl)-1-pyrazolyl]-2-aza-2-spiro[3.3]heptyl}methanone], the pIC50 was over 7.30.

Take `COc1ccc(-c2c(C(F)(F)F)cnn2C2CC3(C2)CN(C(=O)c2cc(O)ccc2F)C3)cn1` [Compound 27]: the pIC50 is 6.82 to 7.30.

For `COc1ccc(-c2nn(C3CC4(C3)CN(C(=O)c3cc(O)ccc3F)C4)cc2C(F)(F)F)cn1` [Compound 28, (2-fluoro-5-hydroxyphenyl){6-[3-(6-methoxy-3-pyridyl)-4-(trifluoromethyl)-1-pyrazolyl]-2-aza-2-spiro[3.3]heptyl}methanone], the pIC50 was over 7.30.

With `O=C(c1cc(O)ccc1F)N1CC2(CC(n3ncc(C(F)(F)F)c3-c3ccc[nH]c3=O)C2)C1` [Compound 29, 3-(1-{2-(2-fluoro-5-hydroxybenzoyl)-2-aza-6-spiro[3.3]heptyl}-4-(trifluoromethyl)-5-pyrazolyl)-2(1H)-pyridinone], the pIC50 is 5.29 to 6.00.

`O=C(c1cc(O)ccc1F)N1CC2(CC(n3cc(C(F)(F)F)c(-c4ccc[nH]c4=O)n3)C2)C1` [Compound 30, 3-(1-{2-(2-fluoro-5-hydroxybenzoyl)-2-aza-6-spiro[3.3]heptyl}-4-(trifluoromethyl)-3-pyrazolyl)-2(1H)-pyridinone]: the pIC50 was 6.82 to 7.30.

As to `O=C(c1cc(O)ccc1F)N1CC2(CC(n3ncc(C(F)(F)F)c3-c3ccc(=O)[nH]c3)C2)C1` [Compound 31, 5-(1-{2-(2-fluoro-5-hydroxybenzoyl)-2-aza-6-spiro[3.3]heptyl}-4-(trifluoromethyl)-5-pyrazolyl)-2(1H)-pyridinone], the pIC50 was 5.29 to 6.00.

Turning to `O=C(c1cc(O)ccc1F)N1CC2(CC(n3cc(C(F)(F)F)c(-c4ccc(=O)[nH]c4)n3)C2)C1` [Compound 32], the pIC50 was 6.82 to 7.30.

Turning to `O=C(c1ccc(F)cc1OC1CC1)N1CC2(CC(N3C=C(c4ccccc4F)CC3=O)C2)C1` [Compound 33, 1-{2-(2-cyclopropoxy-4-fluorobenzoyl)-2-aza-6-spiro[3.3]heptyl}-3-(o-fluorophenyl)-2-pyrrolin-5-one], the pIC50 was 5.29 to 6.00.

Take `O=C1CCC(c2c(C(F)(F)F)cnn2C2CC3(C2)CN(C(=O)c2cc(O)ccc2F)C3)CN1` (centres unmarked) [Compound 41, 5-(1-{2-(2-fluoro-5-hydroxybenzoyl)-2-aza-6-spiro[3.3]heptyl}-4-(trifluoromethyl)-5-pyrazolyl)-2-piperidinone]: the pIC50 was 6.30 to 6.82.
